# Measured values published in publication PMC9268243, “Metabolic Behaviors of Aconitum Alkaloids in Different Concentrations of Aconiti Lateralis Radix Praeparata and Effects of Aconitine in Healthy Human and Long QT Syndrome Cardiomyocytes” (Molecules, 2022).
# Read-outs that look alike come from different tables or passages of the source.
# Assay: Pharmacokinetic study of six aconitum alkaloids in rat plasma after oral Fu Zi extracts (UPLC-MS/MS)
# Type: in vivo, Sprague Dawley rats
# Conditions: both sexes, Sprague Dawley, in vivo, SD rat plasma, mean ± SD, n = 8; for AUC(0-t): read-out: AUC(0–48h); for CL/F: read-out: CLz/F (converted); for Vd/F: read-out: Vz/F; for half-life: read-out: t1/2z (converted)
# Protocol: Fu Zi (200 g) was taken and broken by a pulverizer to the size of 0.5–1.0 cm. The broken Fu Zi was soaked in 1.6 L distilled water and boiled for 0.5 h. The filtrate was collected and the previous step was repeated for the filtered residue. The mixed filtrates were precipitated with 60% ethanol, and then centrifuged (2000× g, 10 min). The supernatant was decompressed and concentrated to a final density of 2.0 g/mL by the amount of the crude drugs. The final concentration of ethanol in Fu Zi extracts before administration was below 0.5%. The extract was subsequently kept at −20 °C for oral administration to rats.
# All samples were analyzed on UPLC® I-Class and Xevo® TQS mass spectrometry combined system. Separations by a Waters ACQUITY UPLC® HSS T3(2.1 mm × 100 mm, 1.8 μm) column were conducted with a mobile phase of water (A) and acetonitrile (B), both containing 0.1% formic acid, at the flow rate of 0.3 mL·min^−1.The run time was 5.0 min and the gradient elution program was adopted as follows: 0–0.3 min, 10% B; 0.3–1 min, 10–50% B; 1–2.5 min, 50–90% B; 2.5–3 min, 90% B; 3–5 min, 10% B. The temperature of the column and samples were set at 45 °C and 10 °C, respectively. The volume of injection was 2 μL.
# The detection was quantified by a triple quadrupole mass spectrometer that was set as multiple reactive monitoring (MRM) in the electrospray positive ionization mode (ESI+). The correlative parameters were as follows: capillary voltage: 3 kV; desolvation gas flow: 800 L·h^−1; cone gas flow: 150 L·h^−1; source temperature: 150 °C; desolvation temperature: 500 °C.
# The method of […] was utilized. An amount of 100 μL of plasma samples from rats after oral administration of Fu Zi extracts was precipitated with 300 μL of 50% acetonitrile plus 50% methanol, vortexed for 1.0 min and centrifuged at a speed of 12,000× g at 4 °C for 10 min. The supernatant was transferred to another 1.5 mL centrifuge tube, dried with a stream of nitrogen at 40 °C, redissolved in 50 μL methanol and centrifuged at 12,000× g for 10 min. Then, the supernatant was pipetted out into the autosampler vials and analyzed by UPLC-MS/MS system.
# 24 Sprague Dawley rats (half male and female, weight 180–220 g) were purchased from Beijing Weitong Lihua Biotechnology Co.Ltd. (Beijing, China). The license number of experimental animal production was SCXK (Jing) 2016–0006. The animals were maintained under a standard laboratory condition (humidity: 40–70%, room temperature: 20–26 °C, […], 12 h dark-light cycle) and fed separately. All animal experiments were conducted according to the Guide for the Care and Use of Laboratory Animals (National Research Council of the USA, 1996) and approved by the Institutional Animal Care and Use Committee (IACUC-DWZX-2020-776). After 5 days of acclimation, the rats were fasted for 12 h but provided with water freely before the experiments. The rats were randomly divided into 3 groups: high (2.0 g/kg), middle (1.0 g/kg), and low (0.5 g/kg) dose groups. The Fu Zi extracts was administered to each rat intragastrically. An equivalent of 0.20 mL blood samples were collected from the fossa orbitalis vein into 1.5 mL heparinized centrifuge tubes at the designated time points after dosing: 0.08, 0.25, 0.5, 1, 2, 4, 8, 12, 24, and 48 h. The plasma samples were pipetted out into another 1.5 mL centrifuge tubes after being centrifuged at 5000× g for 10 min and then stored at −20 °C until further analysis.
# The data were acquired by […] from Waters (UNIFI). Microsoft Office Excel and the SPSS software (Version 13.0) was used for data analysis. The data below the LLOQ were regarded as zero in summary statistics. The pharmacokinetic parameters were calculated by DAS pharmacokinetic program (Version 2.0) and all analyzed by non-compartmental method. […] All data were presented as mean ± SD. […]
compound,measurement,setting,value
"CCN1C[C@]2(COC)[C@H](O)C[C@H](OC)[C@@]34[C@@H]5C[C@@]6(O)[C@H](OC(=O)c7ccccc7)[C@@H]5[C@@](OC(C)=O)([C@@H]([C@H](OC)[C@H]23)[C@@H]14)[C@@H](O)[C@@H]6OC [AC, aconitine]",Cmax,oral Fu Zi extracts 0.5 g/kg,1.28 ± 0.34 ng/mL
same,Tmax,oral Fu Zi extracts 0.5 g/kg,4.38 ± 3.11 h
same,AUC(0-t),oral Fu Zi extracts 0.5 g/kg,13.5 ± 3.28 ng·h/mL
same,CL/F,oral Fu Zi extracts 0.5 g/kg,77 mL/min/kg
same,Vd/F,oral Fu Zi extracts 0.5 g/kg,14 ± 4.33 L/kg
same,half-life,oral Fu Zi extracts 0.5 g/kg,1.9 ± 0.31 h
same,Cmax,oral Fu Zi extracts 1.0 g/kg,1.69 ± 0.33 ng/mL
same,Tmax,oral Fu Zi extracts 1.0 g/kg,3.13 ± 1.25 h
same,AUC(0-t),oral Fu Zi extracts 1.0 g/kg,17.1 ± 4.68 ng·h/mL
same,CL/F,oral Fu Zi extracts 1.0 g/kg,106 mL/min/kg
same,Vd/F,oral Fu Zi extracts 1.0 g/kg,70 ± 33.4 L/kg
same,half-life,oral Fu Zi extracts 1.0 g/kg,7.53 ± 2.74 h
same,Cmax,oral Fu Zi extracts 2.0 g/kg,2.27 ± 0.7 ng/mL
same,Tmax,oral Fu Zi extracts 2.0 g/kg,1.03 ± 0.84 h
same,AUC(0-t),oral Fu Zi extracts 2.0 g/kg,23.8 ± 7.77 ng·h/mL
same,CL/F,oral Fu Zi extracts 2.0 g/kg,148 mL/min/kg
same,Vd/F,oral Fu Zi extracts 2.0 g/kg,167 ± 80.1 L/kg
same,half-life,oral Fu Zi extracts 2.0 g/kg,11.5 ± 4.3 h
